Where two headings read alike, the source gives them in different places.
Columns and labels:
KRAS G12C mutation = details: reported in Cell, 2018, 172, 578-589; cited from earlier work
[1] = reported in Cell, 2018, 172, 578-589; cited from earlier work
[2] = system: human non-small cell lung cancer NCI-H358; assay: In vivo drug efficacy test (2): subcutaneous xenograft tumor model; design: species or system BALB/c nude mice; details: 100 mg/kg (0-6 days) + 50 mg/kg (7-20 days)
Method: (§1) To evaluate the in vivo efficacy of the test compounds in a subcutaneous xenograft tumor model of human non-small cell lung cancer NCI-H358.
BALB/c nude mice, female, 6-8 weeks old, weighing 18-21 grams. A total of 100 were required. They were provided by Shanghai Lingchang Experimental Animal Co., Ltd ( ? ? ). NCI-H358 tumor cells were resuspended in PBS to prepare 0.1 mL (5×10^6) of cell suspension, which was inoculated subcutaneously on the right back of each mouse (5×10^6/mouse) to wait for tumor growth. When the average tumor volume reached about 150-200 mm^3, randomized grouping and administration were performed, and the administration dose was shown in Table 6. The diameter of the tumor was measured with vernier calipers twice a week. The formula for calculating the tumor volume is: V=0.5a×b^2, wherein a and b represent the long and short diameters of the tumor, respectively. The tumor suppressive effect of the compounds was evaluated by TGI (%). TGI (%) reflects the tumor growth inhibition rate. Calculation of TGI (%): TGI (%)=[(1−(average tumor volume at the end of administration in a treatment group−average tumor volume at the beginning of administration in the treatment group))/(average tumor volume at the end of treatment in the solvent control group−average tumor volume at the beginning of treatment in the solvent control group)]×100%.

[3] = system: human pancreatic cancer x-MIA-PaCa2 cell; assay: In vivo drug efficacy test (3): subcutaneous xenograft tumor model; design: species or system NU/NU mice; details: 50 mg/kg
Method: To evaluate the in vivo efficacy of the test compounds in a subcutaneous xenograft tumor model of human pancreatic cancer x-MIA-PaCa2 cell.
NU/NU mice, female, 6-8 weeks old, weighing 17-20 grams. A total of 100 were required (additional 30% of animals were inoculated). They were provided by Beijing Vital River Science and Technology Co., Ltd. Each mouse was subcutaneously inoculated with 0.2 mL (10×10^6) of x-MIA-PaCa2 cells (plus matrigel, with the volume ratio being 1:1) on the right back. When the average tumor volume reached about 150 mm^3, grouping and administration were performed, and the administration dose was shown in Table 7. The diameter of the tumor was measured with vernier calipers twice a week. The formula for calculating the tumor volume is: V=0.5a×b^2, wherein a and b represent the long and short diameters of the tumor, respectively. The tumor suppressive effect of the compounds was evaluated by TGI (%). TGI (%) reflects the tumor growth inhibition rate. Calculation of TGI (%): TGI (%)=[(1−(average tumor volume at the end of administration in a treatment group−average tumor volume at the beginning of administration in the treatment group))/(average tumor volume at the end of treatment in the solvent control group−average tumor volume at the beginning of treatment in the solvent control group)]×100%.

[4] = system: pancreatic cancer MIA-Paca2 cell; details: reported in Cell, 2018, 172, 578-589; cited from earlier work
[5] = system: human non-small cell lung cancer NCI-H358; assay: In vivo drug efficacy test (4): subcutaneous xenograft tumor model; design: species or system BALB/c nude mice; details: 15 mg/kg
Method: as §1
BALB/c nude mice, female, 6-8 weeks old, weighing 18-20 grams. A total of 40 were required. They were provided by Shanghai Lingchang Experimental Animal Co., Ltd ( ? ? ). NCI-H358 tumor cells were resuspended in PBS to prepare a cell suspension with a density of 5×10^7/mL, which was inoculated subcutaneously on the right back of each mouse (0.1 mL, 5×10^6/mouse) to wait for tumor growth. When the average tumor volume reached about 166 mm^3, randomized grouping and administration were performed, and the administration dose was shown in Table 8. The diameter of the tumor was measured with vernier calipers twice a week.
The formula for calculating the tumor volume is: V=0.5a×b^2, wherein a and b represent the long and short diameters of the tumor, respectively. The tumor suppressive effect of the compounds was evaluated by TGI (%). TGI (%) reflects the tumor growth inhibition rate. Calculation of TGI (%): TGI (%)=[(1−(average tumor volume at the end of administration in a treatment group−average tumor volume at the beginning of administration in the treatment group))/(average tumor volume at the end of treatment in the solvent control group−average tumor volume at the beginning of treatment in the solvent control group)]×100%.

[6] = Rat pharmacokinetic evaluation experiment; type: in vivo; details: plasma, male SD rats; for AUC: read-out: AUC (exposure)
Description: To determine the drug concentrations in plasma at different times after intravenous and intragastric administration of the test compounds to the rats by using the LC/MS/MS method and using male SD rats as the test animals; To study the pharmacokinetic behaviors of the test compounds in rats and to evaluate the pharmacokinetic characteristics thereof.
Experiment scheme: 10 healthy adult male SD rats were used as experimental animals and divided into 4 groups according to the principle of similar body weight, with 2 in each group of the group IV (two groups) and 3 in each group of the group PO (two groups). The animals were purchased from Beijing Vital River Laboratory Animal Technology Co., Ltd.
Group IV: an appropriate amount of samples were weighed; an appropriate amount of DMSO, PEG400 and water were added successively thereto according to the volume ratio of 10:60:30; and stirring was performed under sonication to reach a clear state of 1.5 mg/mL.
Group PO: an appropriate amount of samples were weighed; an appropriate amount of DMSO, PEG400 and water were added successively thereto according to the volume ratio of 10:60:30; and stirring was performed under sonication to reach a clear state of 1.0 mg/mL.
After fasting overnight, each rat in the group IV was administered intravenously with a volume of 2 mL/kg and a dose of 3 mg/kg; each rat in the group PO was administered intragastrically with a volume of 10 mL/kg and a dose of 10 mg/kg.
After each of the male SD rats in the group IV was administrated with the test compounds, 200 ul of blood samples were collected at 0.0833, 0.25, 0.5, 1, 2, 4, 6, 8 and 24 hours, and were placed in a commercial anticoagulation tube pre-loaded with EDTA-K2. After each rat in the group PO was administrated with the test compounds, 200 ul of blood samples were collected at 0.25, 0.5, 1, 2, 4, 6, 8 and 24 hours respectively, and were placed in a commercial anticoagulation tube pre-loaded with EDTA-K2. The test tube was centrifuged for 15 minutes to separate the plasma and stored at −60° C. 2 hours after administration, the animals can be fed. The content of the test compounds in plasma was determined by the LC/MS/MS method after intravenous and intragastric administration to the rats. The linear range of the method was from 2.00 to 6000 nM; plasma samples were analyzed after treatment of precipitating proteins by acetonitrile.
Note: Cl: clearance rate; Vd: volume of distribution; AUC: exposure; T1/2: half-life; Cmax: maximum compound concentration after oral administration; Tmax: time to reach Cmax; F: bioavailability.

[7] = Liver microsome stability test, human; type: in vitro ADME; details: human liver microsomes, 0.5 mg protein/mL; read-out: Human T1/2
Method: (§2) To test the metabolic stability of the test article in mice, rats and human liver microsomes.
(§3) 1. 10 μL of the test or control article working solution was added to all plates (T0, T5, T10, T20, T30, T60, NCF60).
(§4) 2. Liver microsome solution was dispensed into a 96-well plate at 680 μL/well, and addition was performed on each plate at 80 μL/well, and the above-mentioned incubation plate was placed at 37° C. for pre-incubation for about 10 minutes.
(§5) 4. After the pre-incubation, the NADPH regeneration system working solution was dispensed into the 96-well plate at 90 μL/well, and addition was performed on each plate at 10 μL/well to start the reaction.
(§6) 5. Incubation was performed for an appropriate time (e.g., 5, 10, 20, 30 and 60 minutes).
(§7) 6. 300 μL of the stopping solution (refrigerated at 4° C., containing 100 ng/mL of tolbutamide and 100 ng/mL of labetalol) was respectively added to each sample well.
(§8) T1/2 and Clint(mic) were calculated by the following formula.
(§9) Ct is the concentration at time t, with t being the incubation time; C0 is the concentration at 0; Ke is the elimination rate constant; Clint(mic) is the intrinsic clearance rate of liver microsomes; and Clint(liver) is the hepatic intrinsic clearance rate. CLint(mic)=0.693/half-life/mg microsomal protein per mL (microsome concentration during incubation) CLint(liver)=CLint(mic)×mg microsomal protein/g liver weight×ratio of liver weight to body weight

[8] = system: wild-type A375 human malignant melanoma cells; assay: Cell experiment: anti-proliferative activity, CellTiter-Glo, A375; type: cell-based; details: Homo sapiens, A-375, 120 h, 5 days culture
Method: (§10) This experiment is intended to verify that the compounds of the present invention have an inhibitory effect on the proliferation of NCI-H358 human non-small cell lung cancer cells with KRAS G12C mutation, MIA PaCa2 human pancreatic cancer cells with KRAS G12C mutation and wild-type A375 human malignant melanoma cells.
(§11) 40 μl of phosphate buffer was added to the peripheral wells of three 384-well microplates respectively, and 40 μl of cell suspension to be tested was added to the other wells of each plate respectively (plate 1: NCI-H358 cell suspension containing 500 NCI-H358 cells; plate 2: MIAPaCa2 cell suspension containing 300 MIAPaCa2 cells; plate 3: A375 cell suspension containing 300 A375 cells). The three cell plates were then placed in a carbon dioxide incubator and incubated overnight. Echo was used to perform a 3-fold gradient dilution of the compounds to be tested, and each compound was diluted with 10 concentration gradients (diluted from 50 μM to 0.003 μM), 100 nl of which was respectively added to the corresponding wells of the cell plates; after dosing, 40 μL of phosphate buffer was added to each well of rows A and P and columns 1 and 24, and then the cell plates were put back to the carbon dioxide incubator for culturing for 5 days. 20 μl of Promega CellTiter-Glo reagent per well was added to the cell plates, which was shaken at room temperature for 10 minutes in the dark to stabilize the luminescence signal. A PerkinElmer Envision multi-label analyzer was used for reading.
(§12) Data analysis: IC50 results were analyzed by GraphPad Prism 5.0 software […].

[9] = Liver microsome stability test, mouse; type: in vitro ADME; details: mouse liver microsomes, 0.5 mg protein/mL; read-out: mouse T1/2
Method: as §2, §3, §4, §5, §6, §7, §8, §9

[10] = system: MIA PaCa2 human pancreatic cancer cells with KRAS G12C mutation; assay: Cell experiment: anti-proliferative activity, CellTiter-Glo, MIA PaCa2; type: cell-based; details: Homo sapiens, MIA PaCa-2, 120 h, 5 days culture
Method: as §10, §11, §12

[11] = system: NCI-H358 human non-small cell lung cancer cells with KRAS G12C mutation; assay: Cell experiment: anti-proliferative activity, CellTiter-Glo, NCI-H358; type: cell-based; details: Homo sapiens, NCI-H358, 120 h, 5 days culture
Method: as §10, §11, §12

[12] = Liver microsome stability test, rat; type: in vitro ADME; details: rat liver microsomes, 0.5 mg protein/mL; read-out: rat T1/2
Method: as §2, §3, §4, §5, §6, §7, §8, §9

[13] = system: human pancreatic cancer MIA-PaCa2 cell; assay: In vivo drug efficacy test (1): subcutaneous xenograft tumor model; design: species or system BALB/c nude mice; details: for TGI: day 20
Method: To evaluate the in vivo efficacy of the test compounds in a subcutaneous xenograft tumor model of human pancreatic cancer MIA-PaCa2 cell.
BALB/c nude mice, female, 6-8 weeks old, weighing approximately 18-22 grams. Each mouse was subcutaneously inoculated with 0.2 mL (1×10^7) of MIA-PaCa2 cells (plus matrigel, with the volume ratio being 1:1) on the right back. The administration was performed when the average tumor volume reached about 169 cubic millimeters. The tumor volume was measured twice a week, with the volume measured in cubic millimeters, and calculated by the following formula: V=0.5 a×b^2, where a and b were the long and short diameters of the tumor, respectively. The tumor suppressive effect of the compounds was evaluated by TGI (%). TGI (%) reflects the tumor growth inhibition rate. Calculation of TGI (%): TGI (%)=[(1−(average tumor volume at the end of administration in a treatment group−average tumor volume at the beginning of administration in the treatment group))/(average tumor volume at the end of treatment in the solvent control group−average tumor volume at the beginning of treatment in the solvent control group)]×100%.

## C=CC(=O)N1CCN(c2ncnc3c(F)c(-c4c(O)cccc4F)c(Cl)cc23)CC1 [ARS-1620, reference compound]
KRAS G12C mutation
  cellular anti-proliferative activity at the cellular level: nM-level
[1]
  metabolic stability: good metabolic stability
[2]
  Tumor volume (day 20): 216 mm^3
[2]; day 20
  TGI: 90.82%
[3]
  Tumor volume (day 14): 907 mm^3
[3]; day 14
  TGI: 50.36%
[4]
  tumor growth in subcutaneous xenograft tumor model: effectively inhibit tumor growth
[5]
  Tumor volume (day 27): 492 mm^3
[5]; day 27
  TGI: 51.78%
[6]; IV 3 mg/kg
  AUC: 3.21 µM·h
[6]; IV 3 mg/kg, read-out: Cl (clearance rate)
  clearance: 36.3 mL/min/kg
[6]; IV 3 mg/kg, read-out: T1/2 (half-life) (converted)
  half-life: 27.7 min
[6]; IV 3 mg/kg, read-out: Vd (volume of distribution)
  Vd: 1.08 L/kg
[6]; PO 10 mg/kg
  Cmax: 1240 nM
  Tmax: 20 min
  AUC: 2.32 µM·h
[6]; PO 10 mg/kg, read-out: F (bioavailability)
  bioavailability: 22%

## C=CC(=O)N1CCN(c2ncnc3c(=O)n(-c4c(O)cccc4F)c(C(F)(F)F)cc23)CC1 [Example 2]
[7]
  half-life: > 145 min
[8]
  IC50: > 50 µM
[9]
  half-life: > 145 min
[10]
  IC50: 6.48 µM
[11]
  IC50: 5.36 µM
[12]
  half-life: > 145 min
[13]; 50 mg/kg orally daily
  Tumor volume (day 20): 457 ± 94 mm^3
  TGI: 35%
[13]; 200 mg/kg orally daily
  Tumor volume (day 20): 307 ± 61 mm^3
  TGI: 69%

Reference: patent US11453667B2, “Pyridone-pyrimidine derivative acting as KRASG12C mutein inhibitor” (MEDSHINE DISCOVERY INC., priority 2018, dated 2022)
